Measured values from article PMC12489727, “Malonyl-Caffeoylquinic Acids and Malonyl-Flavonoid-Glucosides from Three Edible Apiaceae Plants Anthriscus Cerefolium, Anthriscus Sylvestris, and Chaerophyllum Bulbosum” (ACS Omega, 2025).

Tests used:
[1] = tested on: human leukemia cells (MOLM-13); design: method as in earlier work; details: MOLM-13 cells; previously reported; ref 40 (Slimestad et al., 2022); cited from earlier work
[2] = tested on: noncancerous rat kidney epithelial cells (NRK); design: method as in earlier work; details: previously reported, ref 40 (Slimestad et al., 2022); cited from earlier work
[3] = DPPH radical scavenging assay; format: biochemical; details: 6 min incubation at room temperature, absorbance at 515 nm, triplicate
Procedure: A DPPH radical scavenging assay was conducted following a previously published protocol, as detailed in the Supporting Information.
Antioxidant Activity Tests. A DPPH radical scavenging assay was used according to a previously
published protocol.13 Serial dilutions of compounds (prepared in methanol) were incubated with
DPPH solution for 6 min at room temperature. The reduction in absorbance was measured with a
HITACHI U-2000 spectrophotometer (Hitachi Ltd., Tokyo, Japan) at 515 nm. […]

[4] = tested on: Vero E6 cells; experiment: In vitro cytostatic effect, Alamar Blue viability assay, Vero E6; format: cell-based, African green monkey; details: then 72 h culture
Procedure: (§1) The cytostatic effects of the compounds were evaluated in vitro on various cancer cells and noncancerous Vero E6 cells using the Alamar Blue viability assay, as detailed in the Supporting Information.
(§2) The cytostatic effects of MDiCQAs and FMGls were evaluated in vitro using the Alamar Blue viability assay on five human cancer cell lines: colorectal carcinoma (HT-29), glioma (U87), hepatocellular carcinoma (HepG2), promyelocytic leukemia (HL-60), and melanoma (A2058). They were also tested on nontumorous Vero E6 cells, kidney epithelial cells from an African green monkey, to evaluate the selectivity of the compounds. […] The two effective MDiCQAs (4 and 9) share a common structural feature: their central quinic acid core is substituted with caffeoyl moieties at the C-1 and C-5 positions and a malonyl group at the C-3 position. In contrast, the ineffective compound 7 has caffeoyl moieties at the same positions, but its malonyl group is attached to the C-4 position instead of C-3. Similarly, in the other ineffective MDiCQAs (5 and 6), the malonyl unit is also located at the C-4 position, while their caffeoyl groups are positioned at C-3 and C-5. […] The results also indicate a high degree of isomer-specificity in the cytostatic activity of MDiCQAs. […] In particular, the inhibition of Vero E6 cells by the MDiCQAs (4 and 9) can be considered as a strong effect, and that of the FMGl (3) as a weaker one, with IC50 values below 10 μM and around 40 μM, respectively. […]
(§3) Determination of the In Vitro Cytostatic Effects of Compounds. In vitro, the cytostatic effect of the compounds was determined on various human tumor- and non-human primate Vero E6 cells using Alamar Blue end-point viability assay. Cells were cultured in DMEM medium supplemented with 10% FBS, 2 mM L-glutamine, 50 IU/mL penicillin/50 µg/mL streptomycin antibiotic cocktail, 1 mM sodium pyruvate and 1% non-essential amino acid mixture at 37 °C in a humidified atmosphere with 5% CO2. At the confluent state, cells were plated into 96-well tissue culture plates with the initial cell number of 5.0×10^3 cells/well. Cells were treated with the compounds after 24 hours in a serum-free medium containing 1.0% (v/v) DMSO at 0.08 -100 µM concentration. Control cells were treated with serum-free medium or DMSO (c=1.0%, v/v ) containing serum-free medium. After overnight incubation, cells were washed twice with a serum-free medium; then, they were cultured for another 72 hours in the complete culturing medium at 37 °C. Following that, 22.5 µL Alamar Blue (resazurin sodium salt, Merck) solution (0.15 mg/mL in PBS) was added to each well and after 4 hrs of incubation, the fluorescence was measured at λEx = 530/30 and λEM = 610/10 nm using a Synergy H4 multi-mode microplate reader (BioTek). All measurements were performed in quadruplets, and the mean IC50 values and ± SEM were represented.

[5] = tested on: melanoma (A2058); experiment: In vitro cytostatic effect, Alamar Blue viability assay, A2058; format: cell-based, human; details: A2058 cells, overnight treatment 0.08-100 µM, then 72 h culture
Procedure: as §1, §2, §3

[6] = tested on: glioma (U87); experiment: In vitro cytostatic effect, Alamar Blue viability assay, U87; format: cell-based, human; details: U87 cells, overnight treatment 0.08-100 µM, then 72 h culture
Procedure: as §1, §2, §3

[7] = tested on: promyelocytic leukemia (HL-60); experiment: In vitro cytostatic effect, Alamar Blue viability assay, HL-60; format: cell-based, human; details: HL-60 cells, overnight treatment 0.08-100 µM, then 72 h culture
Procedure: as §1, §2
as §3, with “All measurements were performed in quadruplets, and the mean IC50 values and ± SEM were represented.” left out

[8] = tested on: hepatocellular carcinoma (HepG2); experiment: In vitro cytostatic effect, Alamar Blue viability assay, HepG2; format: cell-based, human; details: HepG2 cells, overnight treatment 0.08-100 µM, then 72 h culture
Procedure: as §1, §2, §3

[9] = tested on: colorectal carcinoma (HT-29); experiment: In vitro cytostatic effect, Alamar Blue viability assay, HT-29; format: cell-based, human; details: HT-29 cells, overnight treatment 0.08-100 µM, then 72 h culture
Procedure: as §1, §2, §3

[10] = overnight treatment 0.08-100 µM
[11] = Chlorocebus sabaeus, Vero C1008, 72 h, overnight treatment 0.08-100 µM

| Compound | IC50 [3] [µM] | IC50 [4, 10] [µM] | IC50 [4, 11] [µM] | IC50 ([5]; Homo sapiens) [µM] | IC50 ([6]; Homo sapiens, U-87 MG) [µM] | IC50 ([7]; Homo sapiens) [µM] | IC50 ([8]; Homo sapiens) [µM] | IC50 ([9]; Homo sapiens) [µM] | also measured |
| --- | --- | --- | --- | --- | --- | --- | --- | --- | --- |
| 1,3-dicaffeoyl-5-malonyl-δ-quinide | – | – | – | – | – | – | – | – | in vitro cytotoxicity [1]: nonselective in vitro cytotoxicity; in vitro cytotoxicity [2]: nonselective in vitro cytotoxicity |
| O=C(O)CC(=O)OC[C@H]1O[C@@H](Oc2c(-c3ccc(O)c(O)c3)oc3cc(O)cc(O)c3c2=O)[C@H](O)[C@@H](O)[C@@H]1O [Compound 1, quercetin-3-O-(6″-O-malonyl)-β-D-glucoside] | 22.5 ± 0.6 | – | – | – | – | – | – | – | – |
| O=C(O)CC(=O)OC[C@H]1O[C@@H](Oc2cc(O)c3c(=O)cc(-c4ccc(O)c(O)c4)oc3c2)[C@H](O)[C@@H](O)[C@@H]1O [Compound 2, luteolin-7-O-(6″-O-malonyl)-β-D-glucoside] | 7.8 ± 0.4 | – | – | – | – | – | – | – | – |
| O=C(O)CC(=O)OC[C@H]1O[C@@H](Oc2c(-c3ccc(O)cc3)oc3cc(O)cc(O)c3c2=O)[C@H](O)[C@@H](O)[C@@H]1O [Compound 3, kaempferol-3-O-(6″-O-malonyl)-β-D-glucoside] | 233.9 ± 0.9 | 39.8 ± 2 | – | – | – | – | – | – | IC50 [5]: 21 ± 3 µM; IC50 [6]: 86.3 ± 9.4 µM; IC50 [7]: 51.4 ± 6.7 µM; IC50 [8]: 27.5 ± 3.4 µM; IC50 [9]: > 100 µM |
| O=C(O)CC(=O)OC1CC(OC(=O)C=Cc2ccc(O)c(O)c2)(C(=O)O)CC(OC(=O)C=Cc2ccc(O)c(O)c2)C1O (stereo not drawn) [Compound 4, 1,5-Dicaffeoyl-3-malonylquinic Acid] | – | 9.9 ± 1.4 | < 10 | 13.5 ± 1.5 | > 100 | 29.7 ± 4.6 | 25.6 ± 2.3 | > 100 | – |
| O=C(O)CC(=O)OC[C@H]1O[C@@H](Oc2cc(O)c3c(=O)cc(-c4ccc(O)c(O)c4)oc3c2)[C@H](OC(=O)CC(=O)O)[C@@H](O)[C@@H]1O [Compound 8, Luteolin-7-O-(2″,6″-di-O-malonyl)-β-D-glucoside] | 14.8 ± 0.6 | – | > 100 | > 100 | > 100 | – | > 100 | > 100 | – |
| O=C(O)CC(=O)OC1CC(OC(=O)C=Cc2ccc(O)c(O)c2)(C(=O)O)CC(OC(=O)C=Cc2ccc(O)c(O)c2)C1OC(=O)CC(=O)O (stereo not drawn) [Compound 9, 1,5-Dicaffeoyl-3,4-dimalonylquinic Acid] | 13.6 ± 0.4 | 9.5 ± 3.1 | < 10 | 11.9 ± 2.2 | 48.5 ± 4.6 | > 100 | > 100 | 47.9 ± 2.3 | – |
| COc1cccc2c1C(=O)c1c(O)c3c(c(O)c1C2=O)C[C@@](O)(C(C)=O)C[C@@H]3O[C@H]1C[C@H](N)[C@H](O)[C@H](C)O1 [Daunomycin, reference compound] | – | – | – | 0.2 ± 0.01 | 0.6 ± 0.05 | 0.16 ± 0.03 | 0.54 ± 0.15 | 0.9 ± 0.1 | IC50 ([4]; Chlorocebus sabaeus, Vero C1008, overnight treatment 0.08-100 µM): 1.7 ± 0.5 µM |
| Cc1c(C)c2c(c(C)c1O)CCC(C)(C(=O)O)O2 (stereo not drawn) [Trolox, reference compound] | 18.4 ± 0.1 | – | – | – | – | – | – | – | – |
